Measurements: patent US20030219894A1, “Induction of insulin-producing cells” (JCR Pharmaceuticals Co., Ltd., priority 2002, published 2003)

Key:
Assay type in all cases: cell-based
[1] = tested on: mouse fetal hepatocytes; experiment: RT-PCR analysis of insulin 1 and 2 gene expression in cultured fetal hepatocytes with medium supplements; conditions: for induction of insulin 1 and 2 gene expression: supplement separately added to DMEM/F12 containing 10% FBS
Method: For preparing fetal hepatocytes, the liver of fetal ICR mice (embryonic day 13.5) was excised and treated with 0.1% trypsin-phosphate-buffered saline for 5 min at 37° C. A culture medium solution then was added, and the mixture was filtered through a nylon membrane (#200). The cell suspension thus obtained was centrifuged at 50 g for 5 min. The cell pellet was suspended in a medium consisting of 1:1 DMEM/F12 (Sigma D6421) supplemented with 10% fetal bovine serum, L-glutamine (2 mmol/L), β-mercaptoethanol (β-ME), (50 μmol/L), penicillin (100,000 U/L) and streptomycin (100 mg/L). The formula of the 1:1 DMEM/F12 (Dulbecco's Modified Eagle's Medium/Ham's Nutrient Mixture F-12: Sigma D6421) was as follows (in g/L): Ca2Cl2/2H2O (0.1545), CuSO4/5H2O (0.0000013), Fe(NO3)3/9H2O (0.00005). […]
Both insulin 1 and 2 genes were clearly expressed under the culture conditions used, as determined by RT-PCR analysis. […] Each of these supplements was separately added to the DMEM/F12 containing 10% FBS, and effects on insulin expression was evaluated in thus formed different media. […]

[2] = tested on: mouse embryonic fibroblasts (MEF); experiment: RT-PCR analysis of insulin 1 and 2 gene expression in mouse embryonic fibroblasts (negative control cells); conditions: MEF from fetal limbs (ED13.5), medium supplemented with nicotinamide; FIG. 1
Method: (§1) Both insulin 1 and 2 genes were clearly expressed under the culture conditions used, as determined by RT-PCR analysis. It was assumed that some of the supplements (nicotinamide, EGF, insulin or dexamethasone) to the culture medium were responsible for the expression of the insulin genes in the hepatocytes. Each of these supplements was separately added to the DMEM/F12 containing 10% FBS, and effects on insulin expression was evaluated in thus formed different media. When cultured in a medium not supplemented with nicotinamide (containing just 0.0165 mmol/L of nicotinamide), the mouse fetal hepatocytes either din not express the insulin 1 or 2 gene at all, or did expressed them but only very poorly (FIG. 1). […] As a negative control, mouse embryonic fibroblasts (MEF) were prepared from fetal limbs (ED13.5), and cultured under the same conditions. […] Immunohistochemistry using anti-insulin antibody was employed to confirm that a high-concentration of nicotinamide was requited for the differentiation of mouse fetal hepatocytes into insulin-producing cells.

[3] = tested on: mouse fetal hepatocytes; experiment: Immunohistochemistry using anti-insulin antibody; conditions: medium supplemented with nicotinamide; FIG. 3 vs FIG. 2
Source text: Fetal hepatocytes were fixed with 4% paraformaldehyde in 0.1 M phosphate buffer and stained by direct immunoperoxidase method using a guinea pig anti-pig insulin antibody (Zymed Laboratories, South San Francisco, Calif.) and a peroxidase-labeled pig anti-guinea pig IgG (DAKO Japan, Kyoto).
as §1

For `NC(=O)c1cccnc1` [nicotinamide], which “expression of the insulin 1 and 2 genes” value ([1]; medium supplemented with 10 mmol/L of nicotinamide, DMEM/F12 containing 10% FBS, FIG. 1) is on record?
The value was “markedly induced”.

What about the “expression of the insulin 1 and 2 genes in MEF” value [2] of the same compound?
Its value is “expressed”.

And the “generation of insulin-positive cells (anti-insulin immunostaining)” value [3]?
Its value is “led to generation of insulin-positive cells”.

“EGF: epidermal growth factor (EGF), culture medium supplement (NSDSECPLSHDGYCLHDGVCMYIEALDKYACNCVVGYIGERCQYRDLKWWELR; Epidermal growth factor; UniProt P01133 971-1023, looked up)” was tested. Which “induction of insulin 1 and 2 gene expression” value [1] did it give?
Its value is “either had no effect or had only a marginal effect”.

With “insulin: insulin, culture medium supplement (172 nmol/L)” as the compound, how does the “induction of insulin 1 and 2 gene expression” value [1] read?
The value was “either had no effect or had only a marginal effect”.
